Data reported in ChEMBL document CHEMBL2375345, “New antiprotozoal agents: their synthesis and biological evaluations” (Bioorg Med Chem Lett, 2013).

Legend:
[1] = Selectivity index, ratio of CC50 for human MRC5 cells to IC50 for amastigote form of Leishmania infantum MHOM/MA(BE)/67; type: functional
[2] = Selectivity index, ratio of CC50 for human MRC5 cells to IC50 for trypomastigote form of Trypanosoma brucei rhodesiense STIB900; type: functional
[3] = Selectivity index, ratio of CC50 for human MRC5 cells to IC50 for trypomastigote form of Trypanosoma brucei brucei 427; type: functional
[4] = Selectivity index, ratio of CC50 for human MRC5 cells to IC50 for epimastigote form of Trypanosoma cruzi Tulahuen 2; type: functional
[5] = Lipophilicity, log P of the compound; type: physicochemical; conditions: octanol/water
[6] = Cytotoxicity against human MRC5 cells assessed as cell viability after 7 days by Alamar blue assay; type: cell-based
Leishmania infantum = test: Antiprotozoal activity against amastigote form of Leishmania infantum MHOM/MA(BE)/67 infected in mouse peritoneal macrophages assessed as reduction of intracellular parasite burden after 5 days by Giemsa staining method; type: functional, organism-based; conditions: MHOM/MA(BE)/67, 120 h
Trypanosoma cruzi [7] = test: Antiprotozoal activity against epimastigote form of Trypanosoma cruzi Tulahuen 2 assessed as parasite growth inhibition measured at day 5; type: functional, organism-based; conditions: Tulahuen 2, 120 h
[8] = tested on: Trypanosoma brucei brucei; test: Antiprotozoal activity against trypomastigote form of Trypanosoma brucei brucei 427 assessed as parasite growth inhibition; type: functional, organism-based
[9] = tested on: Trypanosoma brucei rhodesiense; test: Antiprotozoal activity against trypomastigote form of Trypanosoma brucei rhodesiense STIB900 assessed as parasite growth inhibition after 72 hrs by Alamar blue assay; type: functional, organism-based; conditions: STIB900, 72 h
[10] = Cytotoxicity against mouse peritoneal macrophages; type: cell-based; conditions: peritoneal macrophage cell
Leishmania donovani = test: Antiprotozoal activity against […] form of Leishmania donovani infected in primary macrophages assessed as reduction in intracellular parasite level after 90 mins by Giemsa staining method; type: functional, organism-based; conditions: 1.5 h
Trypanosoma cruzi [11] = test: Antiprotozoal activity against trypomastigote form of Trypanosoma cruzi Colombian infected in BALB/c mouse assessed as decrease in parasitemia at 100 mg/kg, po administered for 1 week followed by weekly administration measured after 8 months; conditions: 168 h
Trypanosoma cruzi [12] = test: Trypanocidal activity against Trypanosoma cruzi

logP [5]	IC50 (Leishmania infantum) [µM]	IC50 (Trypanosoma cruzi [7]) [nM]	IC50 [8] [nM]	IC50 [9] [nM]	IC50 (Leishmania donovani) [nM]	IC50 (Trypanosoma cruzi [11]) [µM]	Structure (SMILES)	Ratio CC50/IC50 [1]	Ratio CC50/IC50 [2]	Ratio CC50/IC50 [3]	Ratio CC50/IC50 [4]	CC50 at 168 h [6] [µM]	Activity [10]	IC50 (Trypanosoma cruzi [12]) [nM]
6.26	8.11	8070	7520	5940			OC(c1ccccc1)c1c(C(F)(F)F)nc2ccc(Br)cc2c1Br (stereo not given)	0.19	0.25	0.2	0.19	1.51		
3.46	0.4	470	250	250			COc1nc2ccc(Br)cc2c2c1C(C)(OCC(O)CN)c1ccccc1-2 (stereo not given)	3.4	5.44	5.44	2.89	1.36	Non-toxic	
4.84	9.51	2500	8230	1880			COc1ccccc1NC(=O)NCC(O)COC1(C)c2ccccc2-c2c1c(OC)nc1ccc(Br)cc21 (stereo not given)	0.56	2.82	0.64	2.12	5.31		
5.71	8	6920	8230	3230			CC1(O)c2ccccc2-c2c1c(OCC(F)(F)F)nc1ccc(Br)cc21 (stereo not given)	2.48	6.14	2.41	2.86	19.8		
4.64	5.08	250	560	250			O=C1c2ccccc2-c2c1c(Nc1ccncc1)nc1ccc(Br)cc21	0.15	3	1.34	3	0.75	Non-toxic	
4.52	25.4	460	32700	8430			COc1nc2ccc(Br)cc2cc1C(c1ccccc1)n1ccnc1 (stereo not given)	1.21	3.65	0.943	67.02	30.8		
6.84	1.7	1000	510	250			CC(O)c1cc(F)ccc1Oc1nc2ccc(NC(=O)Nc3cccc([N+](=O)[O-])c3)cc2cc1Cc1ccccc1 (stereo not given)	1.29	8.8	4.31	2.15	2.2	Non-toxic	
6.72	3.17	2890	650	250			COc1ccccc1NC(=O)Nc1ccc2nc(Oc3ccc(F)cc3C(C)O)c(Cc3ccccc3)cc2c1 (stereo not given)			9.55	2.16	6.21	Non-toxic	
	2.52	250	2180	1810			O=[N+]([O-])c1ccc2nc(Oc3ccc(F)cc3C(O)Cn3ccnc3)c(Cc3ccccc3)cc2c1 (stereo not given)	12.47	17.37	14.42	125.76	31.4	Non-toxic	
7.86	8.11	5810	2090	1310			COc1ccc(NC(=S)Nc2ccc3nc(Oc4ccc(F)cc4C(C)O)c(Cc4ccccc4)cc3c2)cc1 (stereo not given)	7.89	30.91	31.37	10.27	42.3		
5.85	9.51	7250	2240	1990			COc1nc2ccc(Br)cc2c2c1C(C)(OCC(O)CN1CCN(Cc3ccccc3)CC1)c1ccccc1-2 (mixture of isomers)	0.59	2.83	2.51	0.77	5.63		
7.56	8.11	5850	2040	1640			COc1nc2ccc(Br)cc2c2c1C(C)(OCC(O)CN1CCN(C(c3ccccc3)c3ccccc3)CC1)c1ccccc1-2 (mixture of isomers)	2.16	10.7	8.6	3	17.6		
					250		C[C@@H]1[C@H](O)[C@@H](C)/C=C/C=C/C=C/C=C/C=C/C=C/C=C/[C@H](O[C@@H]2O[C@H](C)[C@@H](O)[C@H](N)[C@@H]2O)C[C@@H]2O[C@](O)(C[C@@H](O)C[C@@H](O)[C@H](O)CC[C@@H](O)C[C@@H](O)CC(=O)O[C@H]1C)C[C@H](O)[C@H]2C(=O)O [AMPHOTERICIN B]							
						3.66	O=C(Cn1ccnc1[N+](=O)[O-])NCc1ccccc1 [BENZNIDAZOLE]							
							CC1CS(=O)(=O)CCN1/N=C/c1ccc([N+](=O)[O-])o1 (stereo not given) [NIFURTIMOX]							1800
